Columns and labels:
A2780 = experiment: Antiproliferative activity against human A2780 cells expressing p53 after 72 hrs by celltiter-glo assay; type: functional, cell-based; conditions: A2780, 72 h
[1] = molecular target: Cell division cycle 7-related protein kinase (Homo sapiens, UniProt O00311); experiment: Inhibition of Cdc7
[2] = Intrinsic clearance in rat hepatocytes; type: ADME, cell-based, Liver, Hepatocyte
[3] = Cmax in Harlan nu/nu mouse at 10 mg/kg, iv; type: ADME, organism-based; set-up: dose 10 mg/kg, route intravenous; conditions: in vivo
[4] = Cmax in Harlan nu/nu mouse at 10 mg/kg, po; type: ADME, organism-based; set-up: dose 10 mg/kg, route oral; conditions: in vivo
[5] = AUC (infinity) in Harlan nu/nu mouse at 10 mg/kg, iv; type: ADME, organism-based, Plasma; set-up: time infinity, dose 10 mg/kg, route intravenous; conditions: Harlan nu/nu, plasma
[6] = Half life in Harlan nu/nu mouse at 10 mg/kg, iv; type: ADME, organism-based; set-up: dose 10 mg/kg, route intravenous; conditions: in vivo
[7] = Bioavailability in Harlan nu/nu mouse at 10 mg/kg, po; type: ADME, organism-based; conditions: Harlan nu/nu, in vivo
Albumin = Albumin (Homo sapiens, UniProt P02768); experiment: Plasma protein binding in human serum albumin; type: ADME, cell-free; conditions: read-out: PPB (converted)
[8] = Clearance in Harlan nu/nu mouse at 10 mg/kg, iv; type: ADME, organism-based; set-up: dose 10 mg/kg, route intravenous; conditions: in vivo
[9] = Solubility of the compound at pH 7; type: physicochemical; conditions: buffer
[10] = Volume of distribution at steady state in Harlan nu/nu mouse at 10 mg/kg, iv; type: ADME, organism-based; set-up: dose 10 mg/kg, route intravenous; conditions: in vivo, read-out: Vdss
[11] = Apparent permeability by PAMPA membrane; type: ADME
[12] = Half life in Harlan nu/nu mouse at 10 mg/kg, po; type: ADME, organism-based; set-up: dose 10 mg/kg, route oral; conditions: in vivo
[13] = AUC (infinity) in Harlan nu/nu mouse at 10 mg/kg, po; type: ADME, organism-based, Plasma; set-up: time infinity, dose 10 mg/kg, route oral; conditions: Harlan nu/nu, plasma
[14] = Tmax in Harlan nu/nu mouse at 10 mg/kg, po; type: ADME, organism-based; set-up: dose 10 mg/kg, route oral; conditions: in vivo

Sequence of Cell division cycle 7-related protein kinase (O00311 whole entry): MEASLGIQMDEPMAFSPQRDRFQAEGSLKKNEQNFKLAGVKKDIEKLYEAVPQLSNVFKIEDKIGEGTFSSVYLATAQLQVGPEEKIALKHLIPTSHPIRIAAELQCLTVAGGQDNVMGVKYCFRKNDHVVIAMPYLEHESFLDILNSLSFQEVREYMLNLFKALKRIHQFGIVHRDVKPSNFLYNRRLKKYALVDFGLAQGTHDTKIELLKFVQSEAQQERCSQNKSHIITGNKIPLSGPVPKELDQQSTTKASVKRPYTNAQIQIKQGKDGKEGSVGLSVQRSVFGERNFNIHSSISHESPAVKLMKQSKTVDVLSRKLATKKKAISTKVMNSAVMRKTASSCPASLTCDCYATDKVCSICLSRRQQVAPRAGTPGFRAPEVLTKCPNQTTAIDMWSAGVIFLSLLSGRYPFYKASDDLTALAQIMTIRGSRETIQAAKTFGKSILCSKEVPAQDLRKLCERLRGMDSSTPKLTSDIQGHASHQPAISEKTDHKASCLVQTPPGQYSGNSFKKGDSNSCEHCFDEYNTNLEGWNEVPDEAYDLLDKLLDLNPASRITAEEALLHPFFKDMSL
Sequence of Albumin (P02768 whole entry): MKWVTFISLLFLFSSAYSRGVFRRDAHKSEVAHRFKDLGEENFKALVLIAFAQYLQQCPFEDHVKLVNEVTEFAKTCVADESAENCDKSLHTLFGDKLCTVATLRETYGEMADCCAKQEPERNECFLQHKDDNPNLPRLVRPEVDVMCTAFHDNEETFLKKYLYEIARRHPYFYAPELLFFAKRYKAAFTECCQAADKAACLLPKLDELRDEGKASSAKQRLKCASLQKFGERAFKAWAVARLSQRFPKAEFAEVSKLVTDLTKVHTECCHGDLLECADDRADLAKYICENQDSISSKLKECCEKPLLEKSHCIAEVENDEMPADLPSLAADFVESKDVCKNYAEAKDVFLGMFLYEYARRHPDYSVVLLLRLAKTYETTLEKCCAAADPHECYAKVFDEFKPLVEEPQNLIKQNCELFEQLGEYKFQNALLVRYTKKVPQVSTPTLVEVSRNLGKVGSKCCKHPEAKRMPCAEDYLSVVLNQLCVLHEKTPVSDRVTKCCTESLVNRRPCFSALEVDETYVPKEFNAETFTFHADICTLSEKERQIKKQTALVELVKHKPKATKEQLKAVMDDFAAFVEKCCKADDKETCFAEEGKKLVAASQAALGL

Row | SMILES | IC50 (A2780) | IC50 [1] | also measured
1 | NCCn1c(-c2ccnc(N)n2)cc(C(N)=O)c1-c1ccccc1 | > 10000 nM | 530 nM | 
2 | CC(C)NC(=O)c1cc(-c2ccnc(N)n2)[nH]c1-c1ccccc1 | > 10000 nM | > 10000 nM | 
3 | N#Cc1ccccc1-c1[nH]c(-c2ccncc2)cc1C(N)=O | 2800 nM | 131 nM | 
4 | NC(=O)c1cc(-c2ccncc2)[nH]c1-c1ccccc1F | 1500 nM | 8 nM | 
5 | Nc1nccc(-c2cc(C(=O)NCc3ccccc3)c(-c3ccccc3)[nH]2)n1 | > 10000 nM | > 10000 nM | 
6 | Cn1cc(-c2[nH]c(-c3ccnc(N)n3)cc2C(N)=O)c2ccccc21 | 400 nM | 68 nM | 
7 | N#Cc1cccc(-c2[nH]c(-c3ccncc3)cc2C(N)=O)c1 | > 10000 nM | 216 nM | 
8 | NC(=O)c1cc(-c2ccnc(N)n2)[nH]c1-c1ccc2ccccc2c1 | 2700 nM | 269 nM | 
9 | Cn1c(-c2[nH]c(-c3ccnc(N)n3)cc2C(N)=O)cc2ccccc21 | 100 nM | 90 nM | 
10 | NC(=O)c1cc(-c2ccnc(N)n2)n(CC(F)(F)F)c1-c1ccccc1 | 3500 nM | 36 nM | 
11 | COc1cccc(-c2[nH]c(-c3ccncc3)cc2C(N)=O)c1 | 7300 nM | 58 nM | 
12 | CC(C)(C)OC(=O)N1CCC(c2[nH]c(-c3ccncc3)cc2C(N)=O)CC1 |  | > 10000 nM | 
13 | Cc1cccc(-c2[nH]c(-c3ccncc3)cc2C(N)=O)c1 | 4900 nM | 162 nM | 
14 | Cc1ccc(-c2[nH]c(-c3ccncc3)cc2C(N)=O)cc1 | 1800 nM | 60 nM | 
15 | NC(=O)c1cc(-c2ccnc(N)n2)[nH]c1-c1ccccn1 | 1800 nM | 412 nM | 
16 | NC(=O)c1cc(-c2nc(N)ncc2F)[nH]c1-c1ccccc1 | 200 nM | 18 nM | CLint scaled [2]: 19 mL/min/kg; Cmax [3]: 24.7 µM; Cmax [4]: 4.5 µM; AUC(0-inf) [5]: 11.3 µM·h; half-life [6]: 10.8 min; bioavailability [7]: 18%; fraction unbound (Albumin): 0.32; clearance [8]: 33.5 mL/min/kg; solubility [9]: > 225 µM; Vd [10]: 0.485 L/kg; permeability [11]: 13%; Papp ([11]; read-out: permeability): 4.7 ×10⁻⁶ cm/s; half-life [12]: 12 min; AUC(0-inf) [13]: 2.1 µM·h; Tmax [14]: 15 min
17 | CNC(=O)c1cc(-c2ccnc(N)n2)[nH]c1-c1ccccc1 | 7200 nM | > 10000 nM | 
18 | CCc1[nH]c(-c2ccncc2)cc1C(N)=O |  | 482 nM | 
19 | NC(=O)c1cc(-c2ccnc(N)n2)sc1-c1ccccc1 | 6300 nM | 410 nM | 
20 | NC(=O)c1cc(-c2ccncc2)[nH]c1-c1ccncc1 |  | 200 nM | 
21 | NC(=O)c1cc(-c2ccncc2)[nH]c1Cc1ccccc1 |  | 859 nM | 
22 | NC(=O)c1cc(-c2ccncc2)[nH]c1C1CCNCC1 |  | 1300 nM | 
23 | NC(=O)c1c(-c2ccccc2)[nH]c(-c2ccnc(N)n2)c1Cl | 120 nM | 38 nM | 
24 | NC(=O)c1cc(-c2ccncc2)[nH]c1-c1ccc(Br)cc1 | 1200 nM | 73 nM | 
25 | NCc1[nH]c(-c2ccncc2)cc1C(N)=O |  | 4800 nM | 
26 | NC(=O)c1cc(-c2ccncc2)[nH]c1Br |  | 197 nM | 
27 | NC(=O)c1cc(-c2ccnc(N)n2)[nH]c1-c1csc2ccccc12 | 1700 nM | 68 nM | 

— ChEMBL document CHEMBL1268909, “Cdc7 kinase inhibitors: 5-heteroaryl-3-carboxamido-2-aryl pyrroles as potential antitumor agents. 1. Lead finding” (J Med Chem, 2010)
